From US20160102073A1, “2-HYDROXYMETHYL-SUBSTITUTED OREXIN RECEPTOR ANTAGONISTS” (MERCK SHARP & DOHME CORP., priority 2013, published 2016)

Assays:
[1] = target: T1, human orexin-2 receptor (hOX2R) (Homo sapiens, UniProt O43614); assay: FLIPR Ca2+ Flux Assay, CHO cells expressing hOX2R; assay type: cell-based; details: agonist 70 pM Ala-6,12 orexin-A
T1 construct: expressed in transfected cells; host or cells: Chinese hamster ovary (CHO) cells, grown under G418 selection
T1 sequence (O43614 1-444): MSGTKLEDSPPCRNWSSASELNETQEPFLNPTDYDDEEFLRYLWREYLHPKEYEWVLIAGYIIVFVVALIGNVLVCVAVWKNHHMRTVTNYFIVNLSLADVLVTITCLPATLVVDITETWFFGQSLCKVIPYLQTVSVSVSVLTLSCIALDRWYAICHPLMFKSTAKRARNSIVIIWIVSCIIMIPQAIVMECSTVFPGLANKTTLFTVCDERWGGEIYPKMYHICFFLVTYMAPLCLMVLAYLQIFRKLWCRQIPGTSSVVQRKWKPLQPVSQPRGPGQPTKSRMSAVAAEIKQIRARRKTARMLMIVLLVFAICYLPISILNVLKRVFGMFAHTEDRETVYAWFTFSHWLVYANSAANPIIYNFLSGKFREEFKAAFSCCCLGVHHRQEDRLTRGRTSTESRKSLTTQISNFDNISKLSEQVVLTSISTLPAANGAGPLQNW
Description: The utility of the compounds in accordance with the present invention as orexin receptor OX1R and/or OX2R antagonists may be readily determined without undue experimentation by methodology well known in the art, including the “FLIPR Ca^2+ Flux Assay” (Okumura et al., Biochem. Biophys. Res. Comm. 280:976-981, 2001). In a typical experiment the OX1 and OX2 receptor antagonistic activity of the compounds of the present invention was determined in accordance with the following experimental method. For intracellular calcium measurements, Chinese hamster ovary (CHO) cells expressing the rat orexin-1 receptor or the human orexin-2 receptor, are grown in Iscove's modified DMEM containing 2 mM L-glutamine, […], 1% hypoxanthine-thymidine supplement, 100 U/ml penicillin, 100 μg/ml streptomycin and 10% heat-inactivated fetal calf serum (FCS). The cells are seeded at 20,000 cells/well into Becton-Dickinson black 384-well clear bottom sterile plates coated with poly-D-lysine. All reagents were from GIBCO-Invitrogen Corp. The seeded plates are incubated overnight at 37° C. and 5% CO2. Ala-6,12 human orexin-A as the agonist is prepared as a 1 mM stock solution in 1% bovine serum albumin (BSA) and diluted in assay buffer (HBSS containing 20 mM HEPES, 0.1% BSA and 2.5 mM probenecid, pH7.4) for use in the assay at a final concentration of 70 pM. Test compounds are prepared as 10 mM stock solution in DMSO, then diluted in 384-well plates, first in DMSO, then assay buffer. On the day of the assay, cells are washed 3 times with 100 μl assay buffer and then incubated for 60 min (37° C., 5% CO2) in 60 μl assay buffer containing 1 μM Fluo-4AM ester, 0.02% pluronic acid, and 1% BSA. The dye loading solution is then aspirated and cells are washed 3 times with 100 μl assay buffer. 30 μl of that same buffer is left in each well. Within the Fluorescent Imaging Plate Reader (FLIPR, Molecular Devices), test compounds are added to the plate in a volume of 25 μl, incubated for 5 min and finally 25 μl of agonist is added. Fluorescence is measured for each well at 1 second intervals for 5 minutes and the height of each fluorescence peak is compared to the height of the fluorescence peak induced by 70 pM Ala-6,12 orexin-A with buffer in place of antagonist. For each antagonist, IC50 value (the concentration of compound needed to inhibit 50% of the agonist response) is determined. Alternatively, compound potency can be assessed by a radioligand binding assay (described in Bergman et. al. Bioorg. Med. Chem. Lett. 2008, 18, 1425-1430) in which the inhibition constant (Ki) is determined in membranes prepared from CHO cells expressing either the OX1 or OX2 receptor. The intrinsic orexin receptor antagonist activity of a compound which may be used in the present invention may be determined by these assays.
Chinese hamster ovary (CHO) cells expressing the human orexin-1 receptor (hOX1R) or the human orexin-2 receptor (hOX2R) were grown in Iscove's modified DMEM containing 2 mM L-glutamine, […], 1% hypoxanthine-thymidine supplement, 100 U/ml penicillin, 100 μg/ml streptomycin and 10% heat-inactivated fetal calf serum (FCS). The cells were seeded at 20,000 cells/well into Becton-Dickinson black 384-well clear bottom sterile plates coated with poly-D-lysine. All reagents were from GIBCO-Invitrogen Corp. The seeded plates were incubated overnight at 37° C. and 5% CO2. Ala-6,12 human orexin-A, used as the agonist, was prepared as a 1 mM stock solution in 1% bovine serum albumin (BSA) and diluted in assay buffer (HBSS containing 20 mM HEPES, 0.1% BSA and 2.5 mM probenecid, pH7.4) for use in the assay at a final concentration of 70 pM. Test compounds were prepared as 10 mM stock solution in DMSO, then diluted in 384-well plates, first in DMSO, then assay buffer. […]

[2] = target: T2, human orexin-1 receptor (hOX1R) (Homo sapiens, UniProt O43613); assay: FLIPR Ca2+ Flux Assay, CHO cells expressing hOX1R; assay type: cell-based; details: agonist 70 pM Ala-6,12 orexin-A
T2 construct: expressed in transfected cells; host or cells: Chinese hamster ovary (CHO) cells, grown under G418 selection
T2 sequence (O43613 1-425): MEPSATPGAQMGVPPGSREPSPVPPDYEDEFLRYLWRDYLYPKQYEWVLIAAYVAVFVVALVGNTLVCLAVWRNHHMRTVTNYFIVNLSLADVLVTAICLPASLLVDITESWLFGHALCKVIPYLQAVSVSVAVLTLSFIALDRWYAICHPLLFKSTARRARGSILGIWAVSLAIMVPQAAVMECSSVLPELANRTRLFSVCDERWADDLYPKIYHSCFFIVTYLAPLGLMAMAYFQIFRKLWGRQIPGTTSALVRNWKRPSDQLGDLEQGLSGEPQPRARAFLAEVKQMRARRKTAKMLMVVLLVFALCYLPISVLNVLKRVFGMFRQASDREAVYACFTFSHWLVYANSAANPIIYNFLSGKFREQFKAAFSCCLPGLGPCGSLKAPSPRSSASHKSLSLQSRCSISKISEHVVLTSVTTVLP
Description: Chinese hamster ovary (CHO) cells expressing the human orexin-1 receptor (hOX1R) or the human orexin-2 receptor (hOX2R) were grown in Iscove's modified DMEM containing 2 mM L-glutamine, […], 1% hypoxanthine-thymidine supplement, 100 U/ml penicillin, 100 μg/ml streptomycin and 10% heat-inactivated fetal calf serum (FCS). The cells were seeded at 20,000 cells/well into Becton-Dickinson black 384-well clear bottom sterile plates coated with poly-D-lysine. All reagents were from GIBCO-Invitrogen Corp. The seeded plates were incubated overnight at 37° C. and 5% CO2. Ala-6,12 human orexin-A, used as the agonist, was prepared as a 1 mM stock solution in 1% bovine serum albumin (BSA) and diluted in assay buffer (HBSS containing 20 mM HEPES, 0.1% BSA and 2.5 mM probenecid, pH7.4) for use in the assay at a final concentration of 70 pM. Test compounds were prepared as 10 mM stock solution in DMSO, then diluted in 384-well plates, first in DMSO, then assay buffer.
On the day of the assay, cells were washed 3× with 100 μl assay buffer and then incubated for 60 minutes (37° C., 5% CO2) in 60 μl assay buffer containing 1 μM Fluo-4AM ester, 0.02% pluronic acid, and 1% BSA. The dye loading solution was then aspirated and cells were washed 3× with 100 μl assay buffer. 30 μl of that same buffer was left in each well. Within the Fluorescent Imaging Plate Reader (FLIPR, Molecular Devices), test compounds were added to the plate in a volume of 25 μl, incubated for 5 minutes, and then 25 μl of agonist was added. Fluorescence was measured for each well at 1 second intervals for 5 minutes, and the height of each fluorescence peak was compared to the height of the fluorescence peak induced by 70 pM of Ala-6,12 orexin-A with buffer in place of test compound.

Structure (SMILES) | IC50 [1] | IC50 [2]
C[C@@H]1CC[C@@H](Oc2ncccc2[C@@H](C)O)CN1C(=O)c1ccccc1-n1nccn1 [Example 29, (1R)-1-(2-{[(3R,6R)-6-Methyl-1-{[2-(2H-1,2,3-triazol-2-yl)phenyl]carbonyl}piperidin-3-yl]oxy}pyridin-3-yl)ethanol] | 49 nM | 1160 nM
C[C@@H]1CC[C@@H](Oc2ncccc2C(C)(C)O)CN1C(=O)c1ccccc1-c1ncccn1 [Example 23, 2-[2-({(3R,6R)-6-methyl-1-[(2-pyrimidin-2-ylphenyl)carbonyl]piperidin-3-yl}oxy)pyridin-3-yl] propan-2-ol] | 69 nM | 95 nM
CC(O)c1cccnc1O[C@@H]1CC[C@@H](C)N(C(=O)c2ccccc2-n2nccn2)C1 (stereo partly drawn) [Example 31, 1-(2-{[(3R,6R)-6-methyl-1-{[2-(2H-1,2,3-triazol-2-yl)phenyl]carbonyl}piperidin-3-yl]oxy}pyridin-3-yl)ethanol] | 27 nM | 65 nM
COc1ccc(C(=O)N2C[C@H](Oc3ncccc3C(C)(C)O)CC[C@H]2C)c(-c2ccccc2)n1 [Example 10, 2-[2-({(3R,6R)-1-[(6-methoxy-2-phenylpyridin-3-yl)carbonyl]-6-methylpiperidin-3-yl}oxy)pyridin-3-yl]propan-2-ol] | 157 nM | 435 nM
COc1ccnc(O[C@@H]2CC[C@@H](C)N(C(=O)c3cccc(F)c3-n3nccn3)C2)c1CO [Example 47, (3-Fluoro-2-(2H-1,2,3-triazol-2-yl)phenyl)((2R,5R)-5-((3-(hydroxymethyl)-4-methoxypyridin-2-yl)oxy)-2-methylpiperidin-1-yl)methanone] | 81 nM | 1990 nM
C#C[C@H](O)c1cccnc1O[C@@H]1CC[C@@H](C)N(C(=O)c2ccccc2-n2nccn2)C1 [Example 34, (1S)-1-(2-{[(3R,6R)-6-methyl-1-{[2-(2H-1,2,3-triazol-2-yl)phenyl]carbonyl}piperidin-3-yl]oxy}pyridin-3-yl)prop-2-yn-1-ol] | 26 nM | 584 nM
C[C@@H]1CC[C@@H](Oc2nccc(C(F)(F)F)c2CO)CN1C(=O)c1ccccc1-n1nccn1 [Example 44, [2-{[(3R,6R)-6-methyl-1-{[2-(2H-1,2,3-triazol-2-yl)phenyl]carbonyl}piperidin-3-yl]oxy}-4-(trifluoromethyl)pyridin-3-yl] methanol] | 18 nM | 81 nM
C[C@@H]1CC[C@@H](Oc2ncccc2C(C)(C)O)CN1C(=O)c1ccccc1C1CC1 [Example 13, 2-[2-({(3R,6R)-1-[(2-cyclopropylphenyl)carbonyl]-6-methylpiperidin-3-yl}oxy)pyridin-3-yl]propan-2-ol] | 34 nM | 94 nM
Cc1ccc(C(=O)N2C[C@H](Oc3ncccc3C(C)(C)O)CC[C@H]2C)c(C2CC2)c1 [Example 16, 2-[2-({(3R,6R)-1-[(2-cyclopropyl-4-methylphenyl)carbonyl]-6-methylpiperidin-3-yl}oxy)pyridin-3-yl]propan-2-ol] | 135 nM | 349 nM
C[C@@H]1CC[C@@H](Oc2ncccc2C(C)(C)O)CN1C(=O)c1ccccc1N1CCCC1 [Example 12, 2-[2-({(3R,6R)-6-methyl-1-[(2-pyrrolidin-1-ylphenyl)carbonyl]piperidin-3-yl}oxy)pyridin-3-yl]propan-2-ol] | 104 nM | 265 nM
C[C@@H]1CC[C@@H](Oc2ncccc2CO)CN1C(=O)c1ccccc1-n1ncnn1 [Example 50, (2-{[(3R,6R)-6-methyl-1-{[2-(2H-tetrazol-2-yl)phenyl]carbonyl}piperidin-3-yl]oxy}pyridin-3-yl)methanol] | 289 nM | 1840 nM
CC[C@H](O)c1cccnc1O[C@@H]1CC[C@@H](C)N(C(=O)c2ccccc2-n2nccn2)C1 [Example 32, (1S)-1-(2-{[(3R,6R)-6-methyl-1-{[2-(2H-1,2,3-triazol-2-yl)phenyl]carbonyl}piperidin-3-yl]oxy}pyridin-3-yl)propan-1-ol] | 27 nM | 227 nM
COc1ccnc(O[C@@H]2CC[C@@H](C)N(C(=O)c3ccccc3-n3nccn3)C2)c1CO [Example 46, (4-Methoxy-2-{[(3R,6R)-6-methyl-1-{[2-(2H-1,2,3-triazol-2-yl)phenyl]carbonyl}piperidin-3-yl]oxy}pyridin-3-yl)methanol] | 34 nM | 1170 nM
Cc1ccc(CO)c(O[C@@H]2CC[C@@H](C)N(C(=O)c3ccccc3-n3nccn3)C2)n1 [Example 45, (6-Methyl-2-{[(3R,6R)-6-methyl-1-{[2-(2H-1,2,3-triazol-2-yl)phenyl]carbonyl}piperidin-3-yl]oxy}pyridin-3-yl)methanol] | 29 nM | 95 nM
